Reference: patent US12370182B2, “Bicyclic derivatives as GABAA A5 receptor modulators” (RICHTER GEDEON NYRT., priority 2018, dated 2025)

target: human recombinant GABAA α5β3γ2 receptor (Homo sapiens (Human), UniProt P18507+P31644); test: Binding assay, [3H]Ro151788 displacement on membranes of HEK cells; conditions: 0.5 nM [3H]Ro151788, 60 minutes at 4° C., Cheng-Prusoff; read-out: hGABAA α5 Ki
Experimental: The GABAA α5β3γ2 protein used for the receptor binding assay was derived from membranes produced from HEK cells (Millipore CYL3073) expressing the human recombinant GABAA α5β3γ2 receptor. Cells were stored and cultured in-house according to the instructions provided by the vendor (Millipor). Cell pellet was homogenized in 10 times modified Krebs Henseleit buffer (membrane preparation buffer): 20 mM Tris, 120 mM NaCl, 100 mM KCl, 25 mM CaCl2) and 25 mM MgCl2 pH=7.4 at 4° C. using Ultra Turrax (Janke&Kunkel) maximal speed for 15 seconds. The homogenate was centrifuged at 40,000 g for 30 minutes at 4° C. Supernatant was discarded and the resulting pellet was washed in membrane preparation buffer. Pellet was resuspended in membrane preparation buffer and aliquots of 1.4 mL ampulles were stored at −70° C. until use.
Receptor binding assays were performed in 96-well format in deep-well plates. For each 96-well plate one ampulle of membrane homogenate was thawed and diluted in binding buffer (50 mM Tris pH=7.4, 100 mM KCl) and 200 μL was dispensed into each well. Radioligand [^3H]Ro151788 (Perkin Elmer: NET757250UC) was prepared in binding buffer and added to each well in 50 μL volume to give final concentration of 0.5 nM. Test compounds in suitable concentration(s) were added in additional 50 μL. The final assay volume was 300 μL. Incubation was carried out for 60 minutes at 4° C. For non-specific binding 10 μM unlabeled diazepam was used. After incubation samples were filtered over UniFilter® GF/B™ using Filtermate Harvester (Perkin Elmer) and washed with 5×1 mL binding buffer. The plate was dried at 40° C. for an hour and 40 μL Microscint (Perkin Elmer) scintillation cocktail was added to each well. The plate was read in Microbeta (Perkin Elmer).
The specific radioligand binding (SB) was defined as the difference between total binding (Tot) and the non-specific binding (NSB). Results are expressed as a percent inhibition of specific binding obtained in the presence of compound of interest.
For IC50 and Ki determination a minimum of six drug concentrations in triplicate were used. […] Ki values (i.e. inhibition constants) were calculated using the Cheng-Prusoff equation Ki=IC50/[1+(L/KD)], where [L] is the radioligand concentration and KD the affinity of the labelled ligand for receptor. KD was determined from the Saturation analyses.

Sequence of human recombinant GABAA α5β3γ2 receptor (P31644 32-462): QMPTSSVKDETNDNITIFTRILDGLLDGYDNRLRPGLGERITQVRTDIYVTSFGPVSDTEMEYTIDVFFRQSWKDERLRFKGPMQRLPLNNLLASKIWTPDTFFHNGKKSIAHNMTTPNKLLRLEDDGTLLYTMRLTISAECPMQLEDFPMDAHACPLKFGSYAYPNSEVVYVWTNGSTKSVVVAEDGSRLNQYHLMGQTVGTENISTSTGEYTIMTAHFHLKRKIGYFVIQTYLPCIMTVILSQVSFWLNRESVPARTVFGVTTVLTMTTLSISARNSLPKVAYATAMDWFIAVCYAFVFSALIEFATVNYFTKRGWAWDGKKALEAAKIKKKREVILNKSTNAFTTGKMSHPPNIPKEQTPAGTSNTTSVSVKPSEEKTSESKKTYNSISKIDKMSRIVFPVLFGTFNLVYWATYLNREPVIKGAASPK
Sequence of human recombinant GABAA α5β3γ2 receptor (P28472 26-473 partner): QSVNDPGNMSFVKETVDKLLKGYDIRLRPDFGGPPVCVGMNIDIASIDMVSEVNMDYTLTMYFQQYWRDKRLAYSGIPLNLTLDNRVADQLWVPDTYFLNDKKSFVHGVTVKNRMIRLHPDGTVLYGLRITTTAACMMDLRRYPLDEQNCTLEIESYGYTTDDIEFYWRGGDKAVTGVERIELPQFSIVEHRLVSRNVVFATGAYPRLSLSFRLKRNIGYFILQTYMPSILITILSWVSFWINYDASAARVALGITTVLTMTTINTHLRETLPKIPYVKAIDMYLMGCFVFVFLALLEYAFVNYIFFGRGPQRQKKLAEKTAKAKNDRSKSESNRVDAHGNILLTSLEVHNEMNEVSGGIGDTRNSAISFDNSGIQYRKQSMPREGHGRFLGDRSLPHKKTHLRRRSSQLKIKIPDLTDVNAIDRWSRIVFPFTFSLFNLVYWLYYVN
Sequence of human recombinant GABAA α5β3γ2 receptor (P18507 40-475): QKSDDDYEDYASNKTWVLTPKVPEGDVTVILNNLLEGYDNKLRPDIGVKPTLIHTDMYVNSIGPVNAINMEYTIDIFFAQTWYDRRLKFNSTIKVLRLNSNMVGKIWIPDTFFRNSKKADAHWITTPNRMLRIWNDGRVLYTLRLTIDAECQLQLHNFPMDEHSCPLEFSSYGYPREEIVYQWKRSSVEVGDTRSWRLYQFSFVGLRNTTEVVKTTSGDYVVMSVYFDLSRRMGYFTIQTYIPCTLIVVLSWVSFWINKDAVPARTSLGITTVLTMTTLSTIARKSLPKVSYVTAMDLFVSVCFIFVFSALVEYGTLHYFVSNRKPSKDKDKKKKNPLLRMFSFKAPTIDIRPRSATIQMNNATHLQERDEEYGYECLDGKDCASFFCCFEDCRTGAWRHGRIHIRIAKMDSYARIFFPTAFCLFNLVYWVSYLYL

Row | SMILES | Ki
1 | Cc1onc(-c2ccc(F)cc2)c1COc1ccc2c(n1)CCN(C(=O)CCS(C)(=O)=O)C2 [Example 48, 1-(2-{[3-(4-fluorophenyl)-5-methyl-1,2-oxazol-4-yl]methoxy}-5,6,7,8-tetrahydro-1,6-naphthyridin-6-yl)-3-methanesulfonylpropan-1-one] | 33 nM
2 | Cc1nnn(-c2ccc(F)cc2)c1COc1ccc2c(n1)CN(C(=O)C1CCOC1)C2 (stereo not shown) [Example 62, 1-(4-fluorophenyl)-4-methyl-5-({[6-(oxolane-3-carbonyl)-5H,6H,7H-pyrrolo[3,4-b]pyridin-2-yl]oxy}methyl)-1H-1,2,3-triazole] | 5.7 nM
3 | CCN1CC(C(=O)N2CCc3nc(OCc4c(C)nnn4-c4ccc(F)cc4)ccc3C2)CC1=O (stereo not shown) [Example 43, 1-ethyl-4-(2-{[1-(4-fluorophenyl)-4-methyl-1H-1,2,3-triazol-5-yl]methoxy}-5,6,7,8-tetrahydro-1,6-naphthyridine-6-carbonyl)pyrrolidin-2-one] | 30 nM
4 | Cc1onc(-c2ccc(F)cc2)c1COc1ccc2c(n1)CCN(C(=O)C1CC1)C2 [Example 5, 6-cyclopropanecarbonyl-2-{[3-(4-fluorophenyl)-5-methyl-1,2-oxazol-4-yl]methoxy}-5,6,7,8-tetrahydro-1,6-naphthyridine] | 7.8 nM
5 | CC(=O)N1CCc2nc(OCc3c(-c4ccc(F)cc4)noc3C)ccc2C1 [Example 1, 1-[2-{[3-(4-fluorophenyl)-5-methyl-1,2-oxazol-4-yl]methoxy}-7,8-dihydro-1,6-naphthyridin-6(5H)-yl]ethanone] | 2.8 nM
6 | Cc1nnn(-c2ccc(Cl)cc2)c1COc1ccc2c(n1)CCN(C(=O)C1CCOCC1)C2 [Example 32, 2-{[1-(4-chlorophenyl)-4-methyl-1H-1,2,3-triazol-5-yl]methoxy}-6-(oxane-4-carbonyl)-5,6,7,8-tetrahydro-1,6-naphthyridine] | 22 nM
7 | Cc1nnn(-c2ccc(F)cc2)c1COc1ccc2c(n1)CN(C(=O)c1ccncc1)C2 [Example 64, 4-(2-{[1-(4-fluorophenyl)-4-methyl-1H-1,2,3-triazol-5-yl]methoxy}-5H,6H,7H-pyrrolo[3,4-b]pyridine-6-carbonyl)pyridine] | 25 nM
8 | Cc1onc(-c2ccc(F)cc2)c1COc1ccc2c(n1)CCN(C(=O)c1ccn(C)c1)C2 [Example 11, 2-{[3-(4-fluorophenyl)-5-methyl-1,2-oxazol-4-yl]methoxy}-6-(1-methyl-1H-pyrrole-3-carbonyl)-5,6,7,8-tetrahydro-1,6-naphthyridine] | 11 nM
9 | Cc1nnn(-c2ccc(F)cc2)c1COc1ccc2c(n1)CN(C(=O)C(C)(C)C)C2 [Example 59, 1-(2-{[1-(4-fluorophenyl)-4-methyl-1H-1,2,3-triazol-5-yl]methoxy}-5H,6H,7H-pyrrolo[3,4-b]pyridin-6-yl)-2,2-dimethylpropan-1-one] | 31 nM
10 | CCC(=O)N1Cc2ccc(OCc3c(C)nnn3-c3ccc(F)cc3)nc2C1 [Example 52, 1-(2-{[1-(4-fluorophenyl)-4-methyl-1H-1,2,3-triazol-5-yl]methoxy}-5,7-dihydro-6H-pyrrolo[3,4-b]pyridin-6-yl)propan-1-one] | 37 nM
11 | Cc1nnn(-c2ccc(F)cc2)c1COc1ccc2c(n1)CCN(C(=O)c1ccncc1)C2 [Example 25, 2-{[1-(4-fluorophenyl)-4-methyl-1H-1,2,3-triazol-5-yl]methoxy}-6-(pyridine-4-carbonyl)-5,6,7,8-tetrahydro-1,6-naphthyridine] | 29 nM
12 | Cc1nnn(-c2ccc(F)cc2)c1COc1ccc2c(n1)CCN(C(=O)C1(C)CCOC1)C2 (stereo not shown) [Example 31, 2-{[1-(4-fluorophenyl)-4-methyl-1H-1,2,3-triazol-5-yl]methoxy}-6-(3-methyloxolane-3-carbonyl)-5,6,7,8-tetrahydro-1,6-naphthyridine] | 44 nM
13 | Cc1nnn(-c2ccc(F)cc2)c1COc1ccc2c(n1)CCN(C(=O)C1CCC(=O)N(C)C1)C2 (stereo not shown) [Example 46, 5-(2-{[1-(4-fluorophenyl)-4-methyl-1H-1,2,3-triazol-5-yl]methoxy}-5,6,7,8-tetrahydro-1,6-naphthyridine-6-carbonyl)-1-methylpiperidin-2-one] | 84 nM
